Data published in paper PMC11110727, “Exploiting thiol-functionalized benzosiloxaboroles for achieving diverse substitution patterns – synthesis, characterization and biological evaluation of promising antibacterial agents” (RSC Medicinal Chemistry, 2024).
Values after ≈ are worked out from the molar mass of the structure shown.

What was measured:
E. cloacae DSM 6234 = assay: Antibacterial activity: MIC/MBC, MIC with PAβN, disc-diffusion; type: cell-based, Enterobacter cloacae; conditions: E. cloacae DSM 6234; for MIC: Enterobacter cloacae, DSM6234, read-out: MIC; for -fold reduction of MIC in the presence of PAβN: PAβN 20 μg mL^−1, MHB + 1 mM MgSO4
Procedure: (§1) Direct antimicrobial activity was determined against the following standard strains: (1) Gram-positive cocci: methicillin-sensitive Staphylococcus aureus ATCC 6538P (MSSA), methicillin-resistant S. aureus subsp. aureus ATCC 43300 (MRSA), S. epidermidis ATCC 12228, Enterococcus faecium ATCC 6057, E. faecalis ATCC 29212, Bacillus subtilis ATCC 6633; (2) Gram-negative bacteria from Enterobacteriales order: Klebsiella pneumoniae ATCC 13883, Escherichia coli ATCC 25922, Enterobacter cloacae DSM 6234, Proteus mirabilis ATCC 12453, Serratia marcescens ATCC 13880; (3) Gram-negative non-fermentative rods: Acinetobacter baumannii ATCC 19606, Pseudomonas aeruginosa ATCC 27853, Stenotrophomonas maltophilia ATCC 12714, S. maltophilia ATCC 13637, Burkholderia cepacia ATCC 25416, Bordetella bronchiseptica ATCC 4617; (4) yeasts: Candida albicans ATCC 90028, C. krusei ATCC 6258, C. parapsilosis ATCC 22019, C. tropicalis (Castellani) Berkhout ATCC 750, C. tropicalis IBA 171, C. guilliermondii IBA 155, and Saccharomyces cerevisiae ATCC 9763. Moreover, 5 clinical strains of methicillin-resistant S. aureus were also included: NMI 664 K, NMI 1576 K, NMI 1712 K, NMI 1991 K, and NMI 2541 K. All strains were stored at −80 °C. Prior to testing, each bacterial strain was subcultured twice on tryptic soy agar TSA (bioMerieux) medium and yeast strains on Sabouraud dextrose agar (bioMerieux) for 24–48 h at 30 °C to ensure viability. The antimicrobial activity was evaluated as previously described[26] by the disc-diffusion method and the MIC determination assays according to the EUCAST (ref. [71] and [72]) and CLSI (ref. [53] and [73]) recommendations. Assessment of bactericidal (MBC) and fungicidal (MFC) activities was performed according to the CLSI recommendations.[54,74] […] The new benzosiloxaboroles were dissolved in DMSO (Sigma).
(§2) Considering that the MDR efflux pumps often contribute to Gram-negative rod resistance, the MIC values of studied agents, with or without the pump inhibitor, PAβN (20 μg mL^−1) (Sigma), were determined.[75] The MIC was determined using Mueller–Hinton II broth medium (MHB) (Becton Dickinson) by the broth microdilution method, according to the CLSI guideliness.[53] To minimize the influence of PAβN on the destabilization of bacterial cell covers, the tests were conducted in the presence of 1 mM MgSO4 (Sigma).[76] At least a 4-fold reduction in the MIC value after the addition of PAβN was considered significant.[56,77]

P. aeruginosa ATCC 27853 = assay: as above; type: cell-based; conditions: Pseudomonas aeruginosa, ATCC27853, P. aeruginosa ATCC 27853; for MIC: read-out: MIC
Procedure: as §1, §2

[1] = tested on: S. maltophilia ATCC 12714; assay: as above; type: cell-based, Stenotrophomonas maltophilia; conditions: S. maltophilia ATCC 12714; for MIC: read-out: MIC; for diameter of inhibition zone: (-) = zone not observed, paper discs 9 mm
Procedure: as §1, §2

[2] = tested on: S. maltophilia ATCC 13637; assay: as above; type: cell-based, Stenotrophomonas maltophilia; conditions: S. maltophilia ATCC 13637; for MIC / MBC: Stenotrophomonas maltophilia, ATCC13637; for MIC: read-out: MIC; for diameter of inhibition zone: (-) = zone not observed, paper discs 9 mm
Procedure: as §1, §2

B. cepacia ATCC 25416 = assay: Antibacterial activity: MIC/MBC, disc-diffusion; type: cell-based, Burkholderia cepacia; conditions: Burkholderia cepacia, ATCC25416; B. cepacia ATCC 25416; read-out: MIC
Procedure: as §1, §2

C. albicans ATCC 90028 = assay: Antifungal activity: MIC/MFC, disc-diffusion; type: cell-based, Candida albicans; conditions: Candida albicans, ATCC90028; read-out: MIC
Procedure: (§3) Direct antimicrobial activity was determined against the following standard strains: (1) Gram-positive cocci: methicillin-sensitive Staphylococcus aureus ATCC 6538P (MSSA), methicillin-resistant S. aureus subsp. aureus ATCC 43300 (MRSA), S. epidermidis ATCC 12228, Enterococcus faecium ATCC 6057, E. faecalis ATCC 29212, Bacillus subtilis ATCC 6633; (2) Gram-negative bacteria from Enterobacteriales order: Klebsiella pneumoniae ATCC 13883, Escherichia coli ATCC 25922, Enterobacter cloacae DSM 6234, Proteus mirabilis ATCC 12453, Serratia marcescens ATCC 13880; (3) Gram-negative non-fermentative rods: Acinetobacter baumannii ATCC 19606, Pseudomonas aeruginosa ATCC 27853, Stenotrophomonas maltophilia ATCC 12714, S. maltophilia ATCC 13637, Burkholderia cepacia ATCC 25416, Bordetella bronchiseptica ATCC 4617; (4) yeasts: Candida albicans ATCC 90028, C. krusei ATCC 6258, C. parapsilosis ATCC 22019, C. tropicalis (Castellani) Berkhout ATCC 750, C. tropicalis IBA 171, C. guilliermondii IBA 155, and Saccharomyces cerevisiae ATCC 9763. Moreover, 5 clinical strains of methicillin-resistant S. aureus were also included: NMI 664 K, NMI 1576 K, NMI 1712 K, NMI 1991 K, and NMI 2541 K. All strains were stored at −80 °C. Prior to testing, each bacterial strain was subcultured twice on tryptic soy agar TSA (bioMerieux) medium and yeast strains on Sabouraud dextrose agar (bioMerieux) for 24–48 h at 30 °C to ensure viability. The antimicrobial activity was evaluated as previously described[26] by the disc-diffusion method and the MIC determination assays according to the EUCAST (ref. [71] and [72]) and CLSI (ref. [53] and [73]) recommendations. Assessment of bactericidal (MBC) and fungicidal (MFC) activities was performed according to the CLSI recommendations.[54,74] The following reference agents were used: fluconazole (in the case of fungi), linezolid (for Gram-positive bacteria), and nitrofurantoin (for Gram-negative rods). The new benzosiloxaboroles were dissolved in DMSO (Sigma).

[3] = tested on: C. guilliermondii IBA 155; assay: Antifungal activity: MIC/MFC, disc-diffusion; type: cell-based; conditions: Meyerozyma guilliermondii, IBA155; read-out: MIC
Procedure: as §3

[4] = tested on: C. parapsilosis ATCC 22019; assay: Antifungal activity: MIC/MFC, disc-diffusion; type: cell-based; conditions: Lodderomyces parapsilosis, ATCC22019; read-out: MIC
Procedure: as §3

C. tropicalis ATCC 750 = assay: Antifungal activity: MIC/MFC, disc-diffusion; type: cell-based; conditions: Candida tropicalis, ATCC750; read-out: MIC
Procedure: as §3

C. tropicalis IBA 171 = assay: Antifungal activity: MIC/MFC, disc-diffusion; type: cell-based; conditions: Candida tropicalis, IBA171; read-out: MIC
Procedure: as §3

S. cerevisiae ATCC 9763 = assay: Antifungal activity: MIC/MFC, disc-diffusion; type: cell-based, Saccharomyces cerevisiae; conditions: Saccharomyces cerevisiae, ATCC9763; read-out: MIC
Procedure: as §3

[5] = Stenotrophomonas maltophilia, ATCC12714

Row | SMILES | MIC (E. cloacae DSM 6234) [µg/mL] | MIC (P. aeruginosa ATCC 27853) [µg/mL] | MIC [1, 5] [µg/mL] | MIC [2] [µg/mL] | MIC (B. cepacia ATCC 25416) [µg/mL] | MIC (C. albicans ATCC 90028) [µg/mL] | MIC [3] [µg/mL] | MIC [4] [µg/mL] | MIC (C. tropicalis ATCC 750) [µg/mL] | MIC (C. tropicalis IBA 171) [µg/mL] | MIC (S. cerevisiae ATCC 9763) [µg/mL] | -fold reduction of MIC in the presence of PAβN (E. cloacae DSM 6234) | diameter of inhibition zone [1] [mm] | -fold reduction of MIC in the presence of PAβN ([1]; PAβN 20 μg mL^−1, MHB + 1 mM MgSO4) | diameter of inhibition zone [2] [mm] | MBC [2] [µg/mL] | MBC (P. aeruginosa ATCC 27853) [µg/mL] | MBC [1, 5] [µg/mL]
1 | C[Si]1(C)OB(O)c2cc(F)c(SCCC(N)=O)c(F)c21 [Compound 7, 3-((5,7-Difluoro-3-hydroxy-1,1-dimethyl-1,3-dihydrobenzo[c][1,2,5]oxasilaborol-6-yl)thio)propanamide] | > 400 | > 400 | > 400 | > 400 | > 400 | > 400 | > 400 | > 400 | > 400 | > 400 | > 400 |  |  |  |  |  |  | 
2 | C[Si]1(C)OB(O)c2cc(F)c(SCCC(=O)N3CCOCC3)c(F)c21 [Compound 8, 3-((5,7-Difluoro-3-hydroxy-1,1-dimethyl-1,3-dihydrobenzo[c][1,2,5]oxasilaborol-6-yl)thio)-1-morpholinopropan-1-one] | > 400 | > 400 | > 400 | > 400 | > 400 | > 400 | > 400 | > 400 | > 400 | > 400 | > 400 |  |  |  |  |  |  | 
3 | C[Si]1(C)OB(O)c2cc(F)c(SCCC(=O)Nc3ncccn3)c(F)c21 [Compound 9, 3-((5,7-Difluoro-3-hydroxy-1,1-dimethyl-1,3-dihydrobenzo[c][1,2,5]oxasilaborol-6-yl)thio)-N-(pyrimidin-2-yl)propanamide] | > 400 | > 400 | > 400 | > 400 | > 400 | > 400 | > 400 | > 400 | > 400 | > 400 | > 400 |  |  |  |  |  |  | 
4 | C[Si]1(C)OB(O)c2cc(F)c(SCCC(=O)Nc3cnccn3)c(F)c21 [Compound 10, 3-((5,7-Difluoro-3-hydroxy-1,1-dimethyl-1,3-dihydrobenzo[c][1,2,5]oxasilaborol-6-yl)thio)-N-(pyrazin-2-yl)propanamide] | > 400 | > 400 | > 400 | > 400 | > 400 | > 400 | > 400 | > 400 | > 400 | > 400 | > 400 |  |  |  |  |  |  | 
5 | Cc1cc(NC(=O)CCSc2c(F)cc3c(c2F)[Si](C)(C)OB3O)no1 [Compound 11, 3-((5,7-Difluoro-3-hydroxy-1,1-dimethyl-1,3-dihydrobenzo[c][1,2,5]oxasilaborol-6-yl)thio)-N-(5-methylisoxazol-3-yl)propanamide] | > 400 | > 400 | > 400 | > 400 | > 400 | > 400 | > 400 | > 400 | > 400 | > 400 | > 400 |  |  |  |  |  |  | 
6 | C[Si]1(C)OB(O)c2cc(F)c(SC3CC(=O)NC3=O)c(F)c21 (stereo not shown) [Compound 12, 3-((5,7-Difluoro-3-hydroxy-1,1-dimethyl-1,3-dihydrobenzo[c][1,2,5]oxasilaborol-6-yl)thio)pyrrolidine-2,5-dione] | > 400 | > 400 | 200 (≈ 583 µM) | 50 (≈ 146 µM) | > 400 | > 400 | > 400 | > 400 | > 400 | > 400 | > 400 | 8 -fold | 13 | 2 -fold | 13 | 100 (≈ 291 µM) |  | 
7 | C[Si]1(C)OB(O)c2ccc(SC3CC(=O)NC3=O)c(F)c21 (stereo not shown) [Compound 13, 3-((7-Fluoro-3-hydroxy-1,1-dimethyl-1,3-dihydrobenzo[c][1,2,5]oxasilaborol-6-yl)thio)pyrrolidine-2,5-dione] | 400 (≈ 1230 µM) | 200 (≈ 615 µM) | 50 (≈ 154 µM) | 25 (≈ 76.9 µM) | > 400 | > 400 | > 400 | > 400 | > 400 | > 400 | > 400 | 4 -fold | 17 |  | 19 | 50 (≈ 154 µM) | 400 (≈ 1230 µM) | 200 (≈ 615 µM)
